Columns and labels:
Type in all cases: in vivo, nude mice
[1] = tested on: FaDu subcutaneous xenograft; assay: Antitumor effects in FaDu subcutaneous xenograft model as monotherapy; details: intravenous at MTD: Halichondrin B 0.05 mg/kg, Compound (1) 0.2 mg/kg
Method: A human squamous cell carcinoma of the head and neck (SCCHN) cell line FaDu, which had been cultured in an RPMI-1640 medium containing 10% FBS, and penicillin and streptomycin, was adjusted to a concentration of 4.8×10^7 cells/mL with Hanks' Balanced Salt Solution to prepare a cell suspension. The cell suspension was inoculated in a volume of 100 μL into a subcutaneous part of a right flank of nude mice, 7 weeks of ages (CAnN.Cg-Foxnlnu/CrlCrlj, female, Charles River Laboratories Japan Inc.). Nine days after cell inoculation, the shortest diameter and the longest diameter of a tumor in each mouse were measured by using an electronic digital caliper (Digimatic™ caliper, Mitutoyo Corporation), so as to calculate the volume of the tumor in accordance with the following calculation formulae: […]
On the basis of the volumes of tumors obtained on the first day of administration, the mice were grouped such that averages of the tumor volumes were substantially equal among the groups. Each test compound was dissolved in DMSO and a solution was stored at the freezer before use. Immediately before the administration, the stock solution was diluted in saline with 100 μM of hydroxypropyl-β-cyclodextrin. Each evaluation sample was intravenously administered at a maximum tolerable dose (MTD). Incidentally, the experiment was conducted on groups each consisting of 4 mice.

[2] = tested on: CD31-positive vessel in FaDu tumor; assay: Effect on CD31-positive vessel in the FaDu subcutaneous model (Test Example 9); details: five days after administration
Method: A human squamous cell carcinoma of the head and neck (SCCHN) cell line FaDu, which had been cultured in an RPMI-1640 medium containing 10% FBS, and penicillin and streptomycin, was adjusted to a concentration of 5×10^7 cells/mL with PBS to prepare a cell suspension. The cell suspension was inoculated in a volume of 100 μL into a subcutaneous part of a right flank of nude mice, 7 weeks of ages (CAnN.Cg-Foxnlnu/CrlCrlj, female, Charles River Laboratories Japan, Inc.). Ten days after cell inoculation, a test compound in saline with 100 μM of hydroxypropyl-β-cyclodextrin was intravenously administered at doses from ½ MTD to MTD. The experiment was conducted on groups each consisting of 3 mice. Five days after administration, tumor samples were collected and fixed with IHC Zinc Fixative (BD Pharmingen) at 4° C. for 24 hr. Paraffin-embedded tissues were sectioned ([…]), mounted on positively charged slides, and air-dried. Immunohistochemical staining of CD31 was conducted using Ventana autostainer model Discover XT (Roche Diagnostics) according to the manufacture's protocol. Sections were deparaffinized, conditioned and the antigens were retrieved with CC1 (Ventana Medical Systems). Slides were blocked with Blocker A and Blocker B (Endogenous biotin blocking kit, Roche Diagnostics). Rat anti-mouse IgG CD31 antibody (Dianova GmbH) was applied at 2 μg/mL. Sections were incubated with the antibody for 6 hr, followed by 32 minutes incubation with biotinylated anti-rat IgG antibody (Jackson ImmunoResearch Laboratories) at 2.2 μg/mL. The detection was performed with Streptavidin-HRP D for 16 min, followed by incubation with DAB D and DAB H2O2 D (DABMap kit, Ventana Medical Systems, Inc) for 8 min. Slides were counterstained with Hematoxylin II (Roche Diagnostics) for 16 min, followed by incubation with Bluing reagent for 4 min. Sections were dehydrated in graded ethanols, defatted in xylene replacement and covered with DPX (Merck KGaA).
Immunostained slides were scanned using Vectra 2 Automated Slide Imaging System (Perkin Elmer Inc.). The number of blood vessels in the whole tumor was quantified by counting the CD31-positive objects using in Form 2 software (PerkinElmer Inc.) Area of the tumor region was measured by assessing the hematoxylin-staining area using inform 2 software (PerkinElmer Inc.) The number of blood vessels was normalized by the area of the tumor region. An increase rate of the blood vessel number of the test compound-dosing group was calculated with the below formula, and shown in Table 9.

[3] = tested on: α-SMA positive-CAFs in FaDu tumor; assay: Effect on α-SMA positive-CAFs in the FaDu subcutaneous model (Test Example 10); details: two days after administration
Method: A human squamous cell carcinoma of the head and neck (SCCHN) cell line FaDu, which had been cultured in an RPMI-1640 medium containing 10% FBS, and penicillin and streptomycin, was adjusted to a concentration of 5×10^7 cells/mL with PBS to prepare a cell suspension. The cell suspension was inoculated in a volume of 100 μL into a subcutaneous part of a right flank of nude mice, 5 to 6 weeks of ages (CAnN.Cg-Foxnlnu/CrlCrlj, female, Charles River Laboratories Japan, Inc.). Ten days after cell inoculation, a test compound in saline with 100 μM of hydroxypropyl-β-cyclodextrin was intravenously administered at ½ MTD and MTD. The experiment was conducted on groups each consisting of 3 mice. Two days after administration, tumor samples were collected and fixed with IHC Zinc Fixative (BD Pharmingen) at 4° C. for 24 hr. Paraffin-embedded tissues were sectioned ([…]), mounted on positively charged slides, and air-dried for 6 hr. Immunohistochemical staining of α-SMA was conducted using Ventana autostainer model Discover XT (Roche Diagnostics). Sections were deparaffinized, conditioned and the antigens were retrieved with proprietary buffers, EZPrep and CC1 (Ventana Medical Systems). Mouse anti-α-SMA monoclonal antibody conjugated with alkaline phosphatase (clone 1A4, Sigma) was applied at 5 μg/mL. Sections were incubated with the antibody for 6 hr. The detection was performed with RedMap kit (Ventana Medical Systems, Inc). Sections were dehydrated in graded ethanols, defatted in xylene replacement and covered with DPX (Merck KGaA). The serial tumor slices were deparaffinized and stained with Mayer's hematoxylin (Muto Pure Chemicals) for 1 min. Sections were dehydrated in graded ethanols, defatted in xylene replacement and covered with DPX (Merck KGaA).
Immunostained slides were scanned using Vectra 2 Automated Slide Imaging System (Perkin Elmer Inc.). The area of the α-SMA-positive region in the whole tumor was quantified by counting the α-SMA-positive objects using inForm 2 software (PerkinElmer Inc.). Area of the tumor region was measured by assessing the hematoxylin-staining area using inForm 2 software (PerkinElmer Inc.). The area of the α-SMA positive region was normalized by the area of the tumor region. A suppression rate of the α-SMA positive area of the test compound-dosing group was calculated with the below formula, and shown in Table 10.

[4] = MTD i.v. (Halichondrin B 0.05 mg/kg, Compound (1) 0.20 mg/kg)
[5] = ½ MTD i.v. (Halichondrin B 0.025 mg/kg, Compound (1) 0.10 mg/kg)

Compound | Tumor Regression (%) [1] [%] | Increase rate of blood vessel number (%) [2, 4] [%] | Increase rate of blood vessel number (%) [2, 5] [%] | Suppression rate of α-SMA positive area (%) [3, 4] [%] | Suppression rate of α-SMA positive area (%) [3, 5] [%]
C=C1C[C@@H]2CC[C@@]34C[C@H]5O[C@H]6[C@@H](O3)[C@H]3O[C@H](CC[C@@H]3O[C@H]6C5O4)CC(=O)O[C@@H]3[C@@H](C)[C@@H]4O[C@@H]5C[C@]6(C[C@@H]7O[C@]8(C[C@H](C)[C@@H]9O[C@H](CN)[C@H](O)C[C@@H]9O8)C[C@H](C)[C@@H]7O6)O[C@@H]5C[C@@H]4O[C@H]3C[C@H]3O[C@@H](CC[C@@H]1O2)C[C@@H](C)C3=C (stereo in doubt) [Compound (1)] | 43 | 154 | 69 | 28 | 21
C=C1C[C@@H]2CC[C@@]34C[C@H]5O[C@H]6[C@@H](O3)[C@H]3O[C@H](CC[C@@H]3O[C@H]6[C@H]5O4)CC(=O)O[C@@H]3[C@@H](C)[C@@H]4O[C@@H]5C[C@]6(C[C@@H]7O[C@]8(C[C@H](C)[C@@H]9O[C@H]([C@@H](O)C[C@@H](O)CO)C[C@@H]9O8)C[C@H](C)[C@@H]7O6)O[C@@H]5C[C@@H]4O[C@H]3C[C@H]3O[C@@H](CC[C@@H]1O2)C[C@@H](C)C3=C [Halichondrin B, reference compound] | 0 | 39 | 31 | 3 | 7
